From ChEMBL document CHEMBL3588782, “Synthesis, antiribosomal and antibacterial activity of 4-O-glycopyranosyl paromomycin aminoglycoside antibiotics” (Medchemcomm, 2014) come the findings set out here.

In brackets after ≈: the same amount, converted by molar mass.

One assay concerns the target Bacterial 70S ribosome. As to the kind of experiment: Inhibition of Mycobacterium smegmatis ribosome containing wild type ribosomal RNA A-site in rabbit reticulocyte lysates assessed as reduction in ribosome-mediated protein synthesis in presence of S-30 extracts by fire fly luciferase synthesis based cell-free translation assay. Set-up: species or system Mycolicibacterium smegmatis.

Assay [1] in a line: Inhibition of Mycobacterium smegmatis ribosome containing ribosomal RNA A-site G1491C mutant in rabbit reticulocyte lysates assessed as reduction in ribosome-mediated protein synthesis in presence of S-30 extracts by fire fly luciferase synthesis based cell-free translation assay. Set-up: species or system Mycolicibacterium smegmatis.
The nature of assay [2]: Inhibition of Mycobacterium smegmatis ribosome containing ribosomal RNA A-site G1491A mutant in rabbit reticulocyte lysates assessed as reduction in ribosome-mediated protein synthesis in presence of S-30 extracts by fire fly luciferase synthesis based cell-free translation assay. Set-up: species or system Mycolicibacterium smegmatis.
A short description of assay [3]: Inhibition of Mycobacterium smegmatis ribosome containing ribosomal RNA A-site A1408G mutant in rabbit reticulocyte lysates assessed as reduction in ribosome-mediated protein synthesis in presence of S-30 extracts by fire fly luciferase synthesis based cell-free translation assay. Set-up: species or system Mycolicibacterium smegmatis.
A further assay addresses 80S Ribosome. In words: Inhibition of human ribosome containing eukaryotic wild type ribosomal RNA A-site in rabbit reticulocyte lysates assessed as reduction in ribosome-mediated protein synthesis in presence of S-30 extracts by fire fly luciferase synthesis based cell-free translation assay.
A short description of assay [4]: Inhibition of human ribosome containing eukaryotic ribosomal RNA A-site A1555G mutant in rabbit reticulocyte lysates assessed as reduction in ribosome-mediated protein synthesis in presence of S-30 extracts by fire fly luciferase synthesis based cell-free translation assay.
The nature of assay [5]: Inhibition of human ribosome containing eukaryotic ribosomal RNA A-site Cyt14 allele in rabbit reticulocyte lysates assessed as reduction in ribosome-mediated protein synthesis in presence of S-30 extracts by fire fly luciferase synthesis based cell-free translation assay.
The subject of a further assay is Ribosome. As to the kind of experiment: Inhibition of ribosome-mediated protein synthesis in rabbit reticulocyte lysates in presence of S-30 extracts by fire fly luciferase synthesis based cell-free translation assay. Set-up: species or system Oryctolagus cuniculus.
Assay [6] relates to Staphylococcus aureus. In words: Antibacterial activity against methicillin-resistant Staphylococcus aureus isolate AG 038 by broth microdilution assay. Type of assay: functional.
Assay [7] deals with Staphylococcus aureus. As to the kind of experiment: Antibacterial activity against methicillin-resistant Staphylococcus aureus isolate AG 039 by broth microdilution assay. Type of assay: functional.
The subject of assay [8] is Staphylococcus aureus. In words: Antibacterial activity against methicillin-resistant Staphylococcus aureus isolate AG 042 by broth microdilution assay. The assay is classed as functional.
Assay [9] concerns Staphylococcus aureus. As to the kind of experiment: Antibacterial activity against methicillin-resistant Staphylococcus aureus isolate AG 044 by broth microdilution assay. The assay is classed as functional.
The test system of assay [10] is Escherichia coli. As to the kind of experiment: Antibacterial activity against Escherichia coli isolate 006 by broth microdilution assay. Type of assay: functional.
For assay [11], the system named is Escherichia coli. As to the kind of experiment: Antibacterial activity against Escherichia coli isolate 001 by broth microdilution assay. The assay is classed as functional.
The subject of assay [12] is Escherichia coli. As to the kind of experiment: Antibacterial activity against Escherichia coli isolate 055 by broth microdilution assay. Type of assay: functional.
Assay [13] relates to Escherichia coli. As to the kind of experiment: Antibacterial activity against Escherichia coli isolate 003 by broth microdilution assay. The assay is classed as functional.

As to `NC[C@@H]1O[C@H](O[C@H]2[C@@H](O)[C@H](O[C@@H]3[C@@H](O)[C@H](N)C[C@H](N)[C@H]3O[C@H]3O[C@H](CO)[C@@H](O[C@H]4O[C@H](CO)[C@@H](O)[C@H](O)[C@H]4O)[C@H](O)[C@H]3N)O[C@@H]2CO)[C@H](N)[C@@H](O)[C@@H]1O`, the IC50 on Bacterial 70S ribosome is 411 nM; in [1], 109.01 µg/mL; in assay [2], 27.08 µg/mL; in assay [3] it was 21.84 µg/mL; at 80S Ribosome, 2.39 µM; in [4], 13.98 µg/mL. Also, the values for the IC50 (in assay [5]; in the assay on Ribosome) were 46.26 µg/mL and 30.64 µg/mL, respectively. Further, the MIC against Staphylococcus aureus [6] worked out at 32 µg/mL (≈ 41.1 µM); with Staphylococcus aureus [7] it was 32 µg/mL (≈ 41.1 µM); in the assay on Staphylococcus aureus [8] it was 32 µg/mL (≈ 41.1 µM); against Staphylococcus aureus [9] it was 16 µg/mL (≈ 20.6 µM); against Escherichia coli [10], 16 µg/mL (≈ 20.6 µM); in the assay with Escherichia coli [11], 128 µg/mL (≈ 165 µM). The MIC in the assay on Escherichia coli [12] and with Escherichia coli [13] was 128 µg/mL (≈ 165 µM) in each case.
`NC[C@@H]1O[C@H](O[C@H]2[C@@H](O)[C@H](O[C@@H]3[C@@H](O)[C@H](N)C[C@H](N)[C@H]3O[C@H]3O[C@H](CO)[C@@H](O[C@@H]4O[C@H](CO)[C@@H](O)[C@H](O)[C@H]4O)[C@H](O)[C@H]3N)O[C@@H]2CO)[C@H](N)[C@@H](O)[C@@H]1O`: the half-inhibitory concentration (IC50) was 476 nM on Bacterial 70S ribosome; 294.83 µg/mL in [1]; 15.5 µg/mL in [2]; 9.32 µg/mL in assay [3]; 76 µM on 80S Ribosome; 83.64 µg/mL in assay [4]. Besides, the IC50 in assay [5] is 117.53 µg/mL; with Ribosome it was 60.75 µg/mL. The minimum inhibitory concentration (MIC) against Staphylococcus aureus [6] was 128 µg/mL (≈ 165 µM); in the assay with Staphylococcus aureus [7] it was at least 128 µg/mL; against Staphylococcus aureus [8] it was above 128 µg/mL; against Staphylococcus aureus [9], 128 µg/mL (≈ 165 µM); against Escherichia coli [10] it was 32 µg/mL (≈ 41.1 µM); in the assay on Escherichia coli [11] it was above 128 µg/mL. Further, the MIC with Escherichia coli [12] and in the assay on Escherichia coli [13] was above 128 µg/mL in each case.
On to `CN[C@@H]1[C@@H](O[C@H]2O[C@H](CO)[C@@H](N)[C@H](O)[C@H]2O)O[C@H]2C[C@@H](N)[C@@H](O[C@H]3[C@H](O)[C@@H](O)[C@H](N)C[C@@H]3N)O[C@@H]2[C@@H]1O` [APRAMYCIN], for which the IC50 on Bacterial 70S ribosome was 111 nM; in [1], 31.21 µg/mL; in assay [2], 5 µg/mL; in assay [3] it was 128.89 µg/mL; at 80S Ribosome it was 108 µM; in assay [4] it was 26.06 µg/mL. The concentration for half-maximal inhibition (IC50) was 49.17 µg/mL in assay [5] and 23.77 µg/mL with Ribosome. Also, the MIC against Staphylococcus aureus [6] amounted to 8 µg/mL (≈ 14.8 µM); against Staphylococcus aureus [7], 8 µg/mL (≈ 14.8 µM); in the assay with Staphylococcus aureus [8] it was 8 µg/mL (≈ 14.8 µM); with Staphylococcus aureus [9], 16 µg/mL (≈ 29.7 µM); with Escherichia coli [10], 4 µg/mL (≈ 7.41 µM); in the assay on Escherichia coli [11], 16 µg/mL (≈ 29.7 µM). For the same molecule, the MIC in the assay with Escherichia coli [12] and against Escherichia coli [13] was 8 µg/mL (≈ 14.8 µM) each time.
Consider `NC[C@@H]1O[C@H](O[C@H]2[C@@H](O)[C@H](O[C@@H]3[C@@H](O)[C@H](N)C[C@H](N)[C@H]3O[C@H]3O[C@H](CO)[C@@H](O)[C@H](O)[C@H]3N)O[C@@H]2CO)[C@H](N)[C@@H](O)[C@@H]1O` [PAROMOMYCIN], for which the IC50 is 48.7 nM on Bacterial 70S ribosome; 10.42 µg/mL in assay [1]; 0.57 µg/mL in assay [2]; 0.26 µg/mL in [3]; 82.1 µM on 80S Ribosome; 5.83 µg/mL in assay [4]. In addition, the IC50 in assay [5] was 10.39 µg/mL; in the assay with Ribosome, 9.78 µg/mL. Moreover, the MIC with Staphylococcus aureus [6] was 4 µg/mL (≈ 6.5 µM); against Staphylococcus aureus [7], above 256 µg/mL; with Staphylococcus aureus [8], above 256 µg/mL; with Staphylococcus aureus [9], 4 µg/mL (≈ 6.5 µM); against Escherichia coli [10] it was 2 µg/mL (≈ 3.25 µM); against Escherichia coli [11] it was 16 µg/mL (≈ 26 µM). Moreover, the minimal inhibitory concentration (MIC) in the assay on Escherichia coli [12] and against Escherichia coli [13] was 8 µg/mL (≈ 13 µM) throughout.
